Measurements as given in patent publication US20220323406A1, “METHODS AND COMPOSITIONS FOR DIFFERENTIATING STEM CELLS” (Massachusetts Institute of Technology, priority 2019, published 2022).
Where a name gives a salt, the structure may show the parent alone.

What was measured:
[1] = test system: ENR+CD organoids (ISC to Paneth cell differentiation); assay: Primary screen: basal (non-stimulated) lysozyme secretion LYZ.NS, 2.5-D 384-well ENR+CD organoid differentiation; type: cell-based, mouse; conditions: primary screen; for Z.LYZ.NS: standard z score
From the text: (§1) High-throughput screening.

[2] = test system: ENR+CD organoids (ISC to Paneth cell differentiation); assay: Primary screen: CCh-stimulated lysozyme secretion LYZ.S, 2.5-D 384-well ENR+CD organoid differentiation; type: cell-based, mouse; conditions: primary screen
From the text: as §1

ENR+CD organoids = assay: Primary screen: ATP (CellTiter-Glo 3D, CTG) cell number/viability, 2.5-D 384-well ENR+CD organoids; conditions: primary screen; for Z.CTG: standard z score;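 for all read-outs here: compounds given at plating and again on day 3 over a 6-day differentiation from ENR+CV stem-cell-enriched precursors, ATP measured on day 6, plate median as control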

Structure (SMILES) | Dose.FC.LYZ.NS ([1]; dose 0.08 uM) [log2 fold change] | Dose.FC.LYZ.NS ([1]; dose 0.40 uM) [log2 fold change] | Dose.FC.LYZ.NS ([1]; dose 2.00 uM) [log2 fold change] | Dose.FC.LYZ.NS ([1]; dose 10.00 uM) [log2 fold change] | Z.LYZ.NS ([1]; dose 0.08 uM) | Z.LYZ.NS ([1]; dose 0.40 uM) | Z.LYZ.NS ([1]; dose 2.00 uM) | Z.LYZ.NS ([1]; dose 10.00 uM) | Dose.FC.LYZ.S ([2]; dose 0.08 uM) [log2 fold change] | Dose.FC.LYZ.S ([2]; dose 0.40 uM) [log2 fold change] | Dose.FC.LYZ.S ([2]; dose 2.00 uM) [log2 fold change] | Dose.FC.LYZ.S ([2]; dose 10.00 uM) [log2 fold change] | Dose.FC.CTG (ENR+CD organoids; dose 0.08 uM) [log2 fold change] | Dose.FC.CTG (ENR+CD organoids; dose 0.40 uM) [log2 fold change] | Dose.FC.CTG (ENR+CD organoids; dose 2.00 uM) [log2 fold change] | Dose.FC.CTG (ENR+CD organoids; dose 10.00 uM) [log2 fold change] | Z.CTG (ENR+CD organoids; dose 0.08 uM) | Z.CTG (ENR+CD organoids; dose 0.40 uM) | Z.CTG (ENR+CD organoids; dose 2.00 uM) | Z.CTG (ENR+CD organoids; dose 10.00 uM)
C[C@@H](NCCCc1cccc(C(F)(F)F)c1)c1cccc2ccccc12 [Cinacalcet HCl] | −0.062 | −0.023 | −0.022 | −0.091 | −0.536 | −0.202 | −0.189 | −0.790 | −0.084 | 0.039 | −0.025 | −0.130 | −0.444 | −0.298 | −0.012 | −0.451 | – | – | – | –
CN1CCC[C@@H]1CCO[C@](C)(c1ccccc1)c1ccc(Cl)cc1 [Clemastine Fumarate] | 0.024 | −0.026 | −0.014 | −0.061 | 0.210 | −0.227 | −0.124 | −0.534 | 0.096 | −0.066 | −0.048 | 0.001 | 0.242 | 0.036 | 0.024 | −0.424 | 0.578 | 0.086 | 0.058 | −1.013
C=C1C(=O)O[C@@H]2/C=C(\C)CC/C=C(\C)CC[C@@H]12 [Costunolide] | 0.131 | 0.067 | −0.018 | 0.047 | 1.143 | 0.585 | −0.157 | 0.408 | 0.171 | 0.103 | −0.006 | 0.006 | −0.029 | 0.121 | 0.050 | 0.008 | – | – | – | –
CC1(COc2ccc3c(c2)ncn3-c2ccc3cccc(N4CCC(N)CC4)c3n2)COC1 [Crenolanib (CP-868596)] | 0.121 | 0.051 | 0.122 | −0.224 | 1.051 | 0.441 | 1.065 | −1.951 | 0.094 | 0.043 | 0.149 | −0.292 | −0.069 | −0.025 | 0.053 | −0.338 | −0.165 | −0.059 | 0.127 | −0.808
C[C@H]1COC2=C1C(=O)C(=O)c1c2ccc2c1CCCC2(C)C [Cryptotanshinone] | 0.143 | −0.120 | −0.182 | −0.288 | 1.243 | −1.047 | −1.585 | −2.506 | 0.156 | −0.105 | −0.288 | −0.432 | 0.199 | −0.027 | −0.184 | −0.541 | – | – | – | –
